These results are taken from patent publication US9944607B2, “Thiohydantoin derivatives and uses thereof” (Whitehead Institute for Biomedical Research, priority 2012, dated 2018).

Values after ≈ are worked out from the molar mass of the structure shown.

The first series relates to Candida albicans CaCi-17. Description: Primary assay: C. albicans CaCi-17 growth inhibition (Alamar Blue). The class given is cell-based. As to conditions: Table 5; n = 3; 48 hours; tested up to 26 μM.
As to `CCOC(=O)N1C(=O)C(C)(C)N(c2ccc(C)cc2)C1=S` [compound 56604873], the “Growth Inhibition Activity, IC50 (μM), C. albicans (n = 3) CaCi-17” value (“Growth Inhibition Activity … (n = 3) CaCi-17” for short) was “inactive”.

The series is the same for the next values; noted with them: Table 6; n = 3; 48 hours; tested up to 26 μM.
Turning to `CCOC(=O)N1C(=O)N(c2ccc(C)cc2)C2(CCCCC2)C1=O` [compound 56604827], the “Growth Inhibition Activity … (n = 3) CaCi-17” value is “inactive”.

Still in this series, the particulars now being: Table 7; n = 3; 48 hours; tested up to 26 μM.
On to `Cc1ccc(N2CC(=O)NC2=O)cc1` [compound 759335], for which the “Growth Inhibition Activity … (n = 3) CaCi-17” value is “inactive”.
Regarding `O=C1NC(=S)N(c2ccccc2)C12CCCCC2` [compound 823120], the “Growth Inhibition Activity … (n = 3) CaCi-17” value is “inactive”.
On to `O=C1NC(=S)N(Cc2ccccc2)C12CCCCC2` [compound 14297244], for which the “Growth Inhibition Activity … (n = 3) CaCi-17” value is “inactive”.
Still for that read-out and setting: as for `Cc1ccc(N2C(=S)NC(=O)C23CCC3)cc1` [compound 56604811], the entry is “inactive”; as for `CC(C)N1C(=S)NC(=O)C12CCCCC2` [compound 56604820], “inactive”; as for `CCOC(=O)N1C(=S)NC(=O)C12CCCCC2` [compound 56604829], “inactive”.
As for `O=C1NC(=S)NC12CCCCC2` [compound 56604841], the “Growth Inhibition Activity … (n = 3) CaCi-17” value is “inactive”.
On to `Cc1ccc(N2CC(=O)NC2=S)cc1` [compound 56604844], for which the “Growth Inhibition Activity … (n = 3) CaCi-17” value is “inactive”.

The subject of a further series is Candida albicans CaCi-2. Description: Primary assay: C. albicans CaCi-2 growth inhibition (Alamar Blue). Format: cell-based. As to conditions: C. albicans growth inhibition. (The colour change of resazurin is a common sign of viable cells or microbes.)
On to `CCOC(=O)N1C(=O)C2(CCOCC2)N(c2ccc(C)cc2)C1=S` [CID 56604818], for which the “Drop in activity / potency relative to hit CID3889161” value stood at 100 fold.
Consider `CCOC(=O)N1C(=O)C2(CCCCC2)N(Cc2ccccc2)C1=S` [CID 56604878], for which the “Drop in activity / potency relative to hit CID3889161” value stood at 10 fold.

Staying with this series, now noted: CaCi-2, or both test strains (CaCi-2, CaCi-17) where the sentence names none.
For `CCOC(=O)N1C(=S)N(c2ccc(C)cc2)C(=O)C12CCCCC2` [CID 56604852], the “Activity against C. albicans” value is “inactive”.
`Cc1ccc(N2C(=S)NC(=O)C23CCCCC3)cc1` [CID 56604892]: the “Activity against C. albicans” value is “failed to inhibit C. albicans growth”.

The series is the same for the next values; noted with them: Table 5; n = 3; 48 hours; tested up to 26 μM.
`CCOC(=O)N1C(=O)C(C)(C)N(c2ccc(C)cc2)C1=S` [compound 56604873]: the “Growth Inhibition Activity, IC50 (μM), C. albicans (n = 3) CaCi-2” value (“Growth Inhibition Activity … (n = 3) CaCi-2” for short) was “inactive”.

The same series, now with this note: Table 6; n = 3; 48 hours; tested up to 26 μM.
Turning to `CCOC(=O)N1C(=O)N(c2ccc(C)cc2)C2(CCCCC2)C1=O` [compound 56604827], the “Growth Inhibition Activity … (n = 3) CaCi-2” value was “inactive”.

Staying with this series, now noted: Table 7; n = 3; 48 hours; tested up to 26 μM.
With `Cc1ccc(N2CC(=O)NC2=O)cc1` [compound 759335], the “Growth Inhibition Activity … (n = 3) CaCi-2” value is “inactive”.
`O=C1NC(=S)N(c2ccccc2)C12CCCCC2` [compound 823120]: the “Growth Inhibition Activity … (n = 3) CaCi-2” value is “inactive”.
As for `O=C1NC(=S)N(Cc2ccccc2)C12CCCCC2` [compound 14297244], the “Growth Inhibition Activity … (n = 3) CaCi-2” value was “inactive”.
For `Cc1ccc(N2C(=S)NC(=O)C23CCC3)cc1` [compound 56604811], the “Growth Inhibition Activity … (n = 3) CaCi-2” value is “inactive”.
For the compound `CC(C)N1C(=S)NC(=O)C12CCCCC2` [compound 56604820], the “Growth Inhibition Activity … (n = 3) CaCi-2” value is “inactive”.
Still for that read-out and setting: as for `CCOC(=O)N1C(=S)NC(=O)C12CCCCC2` [compound 56604829], the entry is “inactive”; as for `O=C1NC(=S)NC12CCCCC2` [compound 56604841], “inactive”.
Regarding `Cc1ccc(N2CC(=O)NC2=S)cc1` [compound 56604844], the “Growth Inhibition Activity … (n = 3) CaCi-2” value was “inactive”.

The subject of the next series is NIH-3T3 mammalian fibroblasts. Description: Counterscreen mammalian cell toxicity assay (Alamar Blue). Format: cell-based, murine. As to conditions: Mus musculus, NIH3T3, read-out: Growth Inhibition Activity, IC50 (μM), 3T3 Fibroblasts (n = 1); Table 7; n = 1; 48 hours; tested up to 26 μM. The method, then:
Quiescent murine fibroblasts were subjected to incubation with compounds of interest for 48 hours. Subsequent cell viability was determined via measuring Alamar Blue fluorescence.
Procedures • After overnight culture, pin compounds into wells at 100 nL/well using the CyBio CyBi-Well pinning instrument. • Return the plates to the tissue culture incubator and incubate the culture for an additional 48 hours at 37° C. under 5% CO2. • At the completion of this incubation, add Alamar Blue solution diluted 1:40 in PBS to each well (10 μL/well) to achieve a final dilution of 1:200. • Incubate the plates for an additional 2-3 hours at 37° C. under 5% CO2. • Read the Relative Fluorescence Intensity (RFU) of wells on a standard plate reader as a measure of relative cell growth. […] 4.4.
A general note: Counterscreens check selectivity or assay interference.
Broadly, the IC50 is the concentration that inhibits the measured activity by half. Consider `Cc1ccc(N2CC(=O)NC2=S)cc1` [compound 56604844], for which the IC50 was 20.7 µM.

Staying with this series, now noted: Table 5; n = 1; 48 hours; tested up to 26 μM.
As to `CCOC(=O)N1C(=O)C(C)(C)N(c2ccc(C)cc2)C1=S` [compound 56604873], the “Growth Inhibition Activity, IC50 (μM), 3T3 Fibroblasts (n = 1)” value (“Growth Inhibition Activity, IC50 … (n = 1)” for short) is reported as “Inactive”.

The same series, now with this note: Table 6; n = 1; 48 hours; tested up to 26 μM.
Regarding `CCOC(=O)N1C(=O)N(c2ccc(C)cc2)C2(CCCCC2)C1=O` [compound 56604827], the “Growth Inhibition Activity, IC50 … (n = 1)” value was “Inactive”.

Still in this series, the particulars now being: Table 7; n = 1; 48 hours; tested up to 26 μM.
On to `Cc1ccc(N2CC(=O)NC2=O)cc1` [compound 759335], for which the “Growth Inhibition Activity, IC50 … (n = 1)” value was “Inactive”.
Turning to `O=C1NC(=S)N(c2ccccc2)C12CCCCC2` [compound 823120], the “Growth Inhibition Activity, IC50 … (n = 1)” value is reported as “Inactive”.
`O=C1NC(=S)N(Cc2ccccc2)C12CCCCC2` [compound 14297244]: the “Growth Inhibition Activity, IC50 … (n = 1)” value is recorded as “Inactive”.
With `Cc1ccc(N2C(=S)NC(=O)C23CCC3)cc1` [compound 56604811], the “Growth Inhibition Activity, IC50 … (n = 1)” value is given as “Inactive”.
Turning to `CC(C)N1C(=S)NC(=O)C12CCCCC2` [compound 56604820], the “Growth Inhibition Activity, IC50 … (n = 1)” value is on record as “Inactive”.
On to `CCOC(=O)N1C(=S)NC(=O)C12CCCCC2` [compound 56604829], for which the “Growth Inhibition Activity, IC50 … (n = 1)” value is reported as “Inactive”.
As for `O=C1NC(=S)NC12CCCCC2` [compound 56604841], the “Growth Inhibition Activity, IC50 … (n = 1)” value was “Inactive”.

System in a further series: not listed separately
Kind of series: Solubility in PBS pH 7.4 with 1% DMSO. As to conditions: phosphate buffered saline with 1% DMSO, pH 7.4, aqueous buffer, kinetic from dmso stock. The method, then:
Solubility was determined in phosphate buffered saline (PBS) pH 7.4 with 1% DMSO. Each compound was prepared in duplicate at 100 μM in both 100% DMSO and PBS with 1% DMSO. Compounds were allowed to equilibrate at room temperature with a 250 rpm orbital shake for 24 hours. After equilibration, samples were analyzed by UPLC-MS (Waters, Milford, Mass.) with compounds detected by SIR detection on a single quadrupole mass spectrometer. The DMSO samples were used to create a two-point calibration curve to which the response in PBS was fit.
For orientation: solubility means the dissolved amount per volume that the medium holds. The low end stands for a poorly soluble substance, the high end for a readily soluble substance. As for `Cc1ccc(N2CC(=O)NC2=O)cc1` [compound 759335], the solubility at 24 h is > 100 µM.
The compound `O=C1NC(=S)N(c2ccccc2)C12CCCCC2` [compound 823120] gave a solubility at 24 h of 79 µM (≈ 20.6 µg/mL). This lies in the double-digit micromolar range.
With `O=C1NC(=S)N(Cc2ccccc2)C12CCCCC2` [compound 14297244], the solubility at 24 h was > 100 µM.
Compound `Cc1ccc(N2C(=S)NC(=O)C23CCC3)cc1` [compound 56604811] showed a solubility at 24 h of 62 µM (≈ 15.3 µg/mL).
Turning to `CC(C)N1C(=S)NC(=O)C12CCCCC2` [compound 56604820], the solubility at 24 h was found to be 32 µM (≈ 7.24 µg/mL). Compared with the last compound, the solubility at 24 h is about 1.9-fold lower.
The same measure, in the same setting: as for `CCOC(=O)N1C(=O)N(c2ccc(C)cc2)C2(CCCCC2)C1=O` [compound 56604827], the figure is 55 µM (≈ 18.2 µg/mL); as for `CCOC(=O)N1C(=S)NC(=O)C12CCCCC2` [compound 56604829], > 100 µM.
The same measure, in the same setting: the result for `O=C1NC(=S)NC12CCCCC2` [compound 56604841] reads > 100 µM; that for `Cc1ccc(N2CC(=O)NC2=S)cc1` [compound 56604844], < 1 µM.
